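48-hour exposure; five concentrations; linearly interpolated endpoints. The concentration for full growth arrest is given as TGI.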
Tests used:
Assay in all cases: DTP human tumour cell line panel, 48 h
BT-549 breast = test system: BT-549 breast
HOP-92 NSCLC = test system: HOP-92 NSCLC
MOLT-4 leukemia = test system: MOLT-4 leukemia
OVCAR-8 ovarian = test system: OVCAR-8 ovarian
SW-620 colon = test system: SW-620 colon
HT29 colon = test system: HT29 colon
SNB-75 CNS = test system: SNB-75 CNS
MCF7 breast = test system: MCF7 breast
HCT-15 colon = test system: HCT-15 colon
UO-31 renal = test system: UO-31 renal
NCI/ADR-RES ovarian = test system: NCI/ADR-RES ovarian
HOP-62 NSCLC = test system: HOP-62 NSCLC
SF-268 CNS = test system: SF-268 CNS
SK-OV-3 ovarian = test system: SK-OV-3 ovarian
U251 CNS = test system: U251 CNS
SNB-19 CNS = test system: SNB-19 CNS
IGROV1 ovarian = test system: IGROV1 ovarian
MALME-3M melanoma = test system: MALME-3M melanoma
RPMI-8226 leukemia = test system: RPMI-8226 leukemia
NCI-H460 lung = test system: NCI-H460 lung
SF-295 CNS = test system: SF-295 CNS
SN12C renal = test system: SN12C renal
CCRF-CEM leukemia = test system: CCRF-CEM leukemia
TK-10 renal = test system: TK-10 renal
A549 NSCLC = test system: A549 NSCLC
ACHN renal = test system: ACHN renal
MDA-MB-435 = test system: MDA-MB-435
PC-3 prostate = test system: PC-3 prostate
T-47D breast = test system: T-47D breast
KM12 colon = test system: KM12 colon
EKVX NSCLC = test system: EKVX NSCLC
OVCAR-5 ovarian = test system: OVCAR-5 ovarian
MDA-MB-231 breast = test system: MDA-MB-231 breast
NCI-H23 lung = test system: NCI-H23 lung
HL-60(TB) leukemia = test system: HL-60(TB) leukemia
A498 renal = test system: A498 renal
HCC-2998 colon = test system: HCC-2998 colon
UACC-257 melanoma = test system: UACC-257 melanoma
COLO 205 colon = test system: COLO 205 colon
MDA-N = test system: MDA-N
DU-145 prostate = test system: DU-145 prostate
SF-539 CNS = test system: SF-539 CNS
LOX IMVI melanoma = test system: LOX IMVI melanoma
OVCAR-3 ovarian = test system: OVCAR-3 ovarian
SK-MEL-5 melanoma = test system: SK-MEL-5 melanoma
HS 578T breast = test system: HS 578T breast
SR leukemia = test system: SR leukemia
HCT-116 colon = test system: HCT-116 colon
786-0 renal = test system: 786-0 renal
M14 melanoma = test system: M14 melanoma
SK-MEL-28 melanoma = test system: SK-MEL-28 melanoma
CAKI-1 renal = test system: CAKI-1 renal
K-562 leukemia = test system: K-562 leukemia
OVCAR-4 ovarian = test system: OVCAR-4 ovarian
RXF 393 renal = test system: RXF 393 renal
NCI-H522 lung = test system: NCI-H522 lung
NCI-H226 lung = test system: NCI-H226 lung
SK-MEL-2 melanoma = test system: SK-MEL-2 melanoma
UACC-62 melanoma = test system: UACC-62 melanoma

## S=C1N(c2ccc(Cl)cc2)C2=C(N=Nc3ccccc3)C(=Nc3ccccc3S2)N1c1ccccn1
BT-549 breast
  TGI: 23.1 µM
HOP-92 NSCLC
  TGI: 49.6 µM
MOLT-4 leukemia
  TGI: 31.7 µM
OVCAR-8 ovarian
  TGI: 28.2 µM
SW-620 colon
  TGI: 34.9 µM
HT29 colon
  TGI: 35.6 µM
SNB-75 CNS
  TGI: 49.2 µM
MCF7 breast
  TGI: 15.2 µM
HCT-15 colon
  TGI: 23 µM
UO-31 renal
  TGI: 21.7 µM
NCI/ADR-RES ovarian
  TGI: 33.4 µM
HOP-62 NSCLC
  TGI: 33.7 µM
SF-268 CNS
  TGI: 19.6 µM
SK-OV-3 ovarian
  TGI: 31.6 µM
U251 CNS
  TGI: 23.7 µM
SNB-19 CNS
  TGI: 28.3 µM
IGROV1 ovarian
  TGI: 1.47 µM
MALME-3M melanoma
  TGI: 19.8 µM
RPMI-8226 leukemia
  TGI: 43.6 µM
NCI-H460 lung
  TGI: 25.7 µM
SF-295 CNS
  TGI: 32.3 µM
SN12C renal
  TGI: 25 µM
CCRF-CEM leukemia
  TGI: 22.9 µM
TK-10 renal
  TGI: 28 µM
A549 NSCLC
  TGI: 29.1 µM
ACHN renal
  TGI: 27.5 µM
MDA-MB-435
  TGI: 26.7 µM
PC-3 prostate
  TGI: 27.6 µM
T-47D breast
  TGI: 0.899 µM
KM12 colon
  TGI: 23.8 µM
EKVX NSCLC
  TGI: 26.6 µM
OVCAR-5 ovarian
  TGI: 35.1 µM
MDA-MB-231 breast
  TGI: 25.4 µM
NCI-H23 lung
  TGI: 37.4 µM
HL-60(TB) leukemia
  TGI: 28.1 µM
A498 renal
  TGI: 17.2 µM
HCC-2998 colon
  TGI: 35.7 µM
UACC-257 melanoma
  TGI: 30.4 µM
COLO 205 colon
  TGI: 25.2 µM
MDA-N
  TGI: 30.1 µM
DU-145 prostate
  TGI: 27.8 µM
SF-539 CNS
  TGI: 30.4 µM
LOX IMVI melanoma
  TGI: 24.4 µM
OVCAR-3 ovarian
  TGI: 27.2 µM
SK-MEL-5 melanoma
  TGI: 23.4 µM
HS 578T breast
  TGI: 32.7 µM
SR leukemia
  TGI: 29.2 µM
HCT-116 colon
  TGI: 27.1 µM
786-0 renal
  TGI: 28.1 µM
M14 melanoma
  TGI: 26.6 µM
SK-MEL-28 melanoma
  TGI: 29.4 µM
CAKI-1 renal
  TGI: 26.7 µM

## COc1ccc(OC)c2nc3c(C(=O)NCCN(C)C)cccc3nc12
BT-549 breast
  TGI: 33 µM
HOP-92 NSCLC
  TGI: 50.2 µM
MOLT-4 leukemia
  TGI: 17.6 µM
OVCAR-8 ovarian
  TGI: 17.7 µM
SW-620 colon
  TGI: 21.7 µM
HT29 colon
  TGI: > 44.3 µM
SNB-75 CNS
  TGI: 32.4 µM
MCF7 breast
  TGI: > 29.8 µM
K-562 leukemia
  TGI: 23.2 µM
HCT-15 colon
  TGI: > 51.5 µM
UO-31 renal
  TGI: > 84.7 µM
NCI/ADR-RES ovarian
  TGI: > 61.1 µM
HOP-62 NSCLC
  TGI: 35.7 µM
SF-268 CNS
  TGI: 27.6 µM
U251 CNS
  TGI: 28.6 µM
OVCAR-4 ovarian
  TGI: 11.1 µM
SNB-19 CNS
  TGI: > 100 µM
RXF 393 renal
  TGI: 23.2 µM
IGROV1 ovarian
  TGI: > 69.5 µM
MALME-3M melanoma
  TGI: 27.3 µM
RPMI-8226 leukemia
  TGI: > 24.2 µM
NCI-H460 lung
  TGI: 21.5 µM
SF-295 CNS
  TGI: 25.6 µM
SN12C renal
  TGI: > 36.1 µM
CCRF-CEM leukemia
  TGI: 11 µM
TK-10 renal
  TGI: 46.8 µM
A549 NSCLC
  TGI: > 34.7 µM
ACHN renal
  TGI: > 100 µM
MDA-MB-435
  TGI: 17.5 µM
PC-3 prostate
  TGI: 17.9 µM
T-47D breast
  TGI: > 100 µM
KM12 colon
  TGI: 22.3 µM
EKVX NSCLC
  TGI: 22.9 µM
OVCAR-5 ovarian
  TGI: > 78.2 µM
NCI-H522 lung
  TGI: 13.4 µM
MDA-MB-231 breast
  TGI: 19.3 µM
NCI-H23 lung
  TGI: 25.5 µM
HL-60(TB) leukemia
  TGI: 16.5 µM
A498 renal
  TGI: 29.4 µM
NCI-H226 lung
  TGI: 27.5 µM
HCC-2998 colon
  TGI: 13.4 µM
UACC-257 melanoma
  TGI: 15.3 µM
COLO 205 colon
  TGI: 11.9 µM
MDA-N
  TGI: 16 µM
DU-145 prostate
  TGI: > 100 µM
SF-539 CNS
  TGI: 20 µM
LOX IMVI melanoma
  TGI: 4.91 µM
OVCAR-3 ovarian
  TGI: 42.3 µM
SK-MEL-5 melanoma
  TGI: 14.1 µM
HS 578T breast
  TGI: 29.6 µM
SK-MEL-2 melanoma
  TGI: 25.9 µM
HCT-116 colon
  TGI: 20.6 µM
786-0 renal
  TGI: > 76.3 µM
M14 melanoma
  TGI: 15.8 µM
SK-MEL-28 melanoma
  TGI: 22.2 µM
CAKI-1 renal
  TGI: > 74 µM
UACC-62 melanoma
  TGI: > 49.3 µM
